The values below come from ChEMBL document CHEMBL2413034, “Novel β-dicarbonyl derivatives as inhibitors of aminopeptidase N (APN)” (Bioorg Med Chem Lett, 2013).

Structures are written as SMILES. Activity calls are given as the source filed them. The calls are words filed in the database; no cut-off is given here. A value given as a limit tells only on which side of the number the result lay.

In general, IC50 refers to the midpoint of a concentration-inhibition curve. High values mean lower potency, low ones higher potency.

The target of one experiment is T1, Aminopeptidase N (Sus scrofa, UniProt P15145).
T1 sequence (P15145 whole entry): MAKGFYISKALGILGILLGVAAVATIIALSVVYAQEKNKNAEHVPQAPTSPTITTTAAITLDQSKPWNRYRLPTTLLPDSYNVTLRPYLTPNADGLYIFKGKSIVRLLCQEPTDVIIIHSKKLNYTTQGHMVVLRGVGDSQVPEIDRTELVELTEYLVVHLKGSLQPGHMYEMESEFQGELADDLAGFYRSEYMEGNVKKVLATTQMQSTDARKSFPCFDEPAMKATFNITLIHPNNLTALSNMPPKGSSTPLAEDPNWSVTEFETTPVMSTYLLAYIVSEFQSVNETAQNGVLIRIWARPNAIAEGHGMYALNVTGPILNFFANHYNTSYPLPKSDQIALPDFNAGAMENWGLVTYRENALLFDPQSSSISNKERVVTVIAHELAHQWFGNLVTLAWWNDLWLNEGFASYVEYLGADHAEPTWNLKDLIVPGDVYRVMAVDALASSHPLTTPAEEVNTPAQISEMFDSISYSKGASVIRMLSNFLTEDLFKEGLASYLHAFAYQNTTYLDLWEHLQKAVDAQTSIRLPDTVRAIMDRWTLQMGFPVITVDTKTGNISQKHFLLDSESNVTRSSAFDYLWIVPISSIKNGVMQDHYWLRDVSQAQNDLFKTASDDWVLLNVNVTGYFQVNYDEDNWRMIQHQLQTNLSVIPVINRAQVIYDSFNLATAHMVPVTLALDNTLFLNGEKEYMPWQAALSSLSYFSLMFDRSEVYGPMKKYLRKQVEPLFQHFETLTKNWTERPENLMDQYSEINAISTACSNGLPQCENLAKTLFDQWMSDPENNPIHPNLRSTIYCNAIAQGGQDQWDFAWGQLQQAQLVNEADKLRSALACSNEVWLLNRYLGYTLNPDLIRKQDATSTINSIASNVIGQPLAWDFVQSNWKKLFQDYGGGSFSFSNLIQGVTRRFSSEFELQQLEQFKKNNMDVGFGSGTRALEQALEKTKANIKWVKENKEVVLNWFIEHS
The experiment can be described thus: Inhibition of pig microsomal aminopeptidase N using L-leu-p-nitroanilide as substrate incubated for 5 mins prior to substrate addition measured after 30 mins by spectrophotometric analysis.

In experiment [1] the target is Histone deacetylase 1/3/5/8 (Homo sapiens, UniProt Q13547+O15379+Q9UQL6+Q9BY41). The experiment can be described thus: Inhibition of HDAC1/HDAC3/HDAC5/HDAC8 in human HeLa nuclear extract using Boc-Lys(acetyl)-AMC as substrate incubated for 5 mins prior to substrate measured after 30 mins by spectrophotometric analysis. The class given is protein assay.
The nature of experiment [2]: Metal chelating activity assessed as affinity to Zn2+ by spectrophotometry. The class given is functional.

Molecule `COc1cc(/C=C/C(=O)CC(=O)/C=C/c2ccc(O)c(OC)c2)ccc1O` [CURCUMIN] gave an IC50 against Aminopeptidase N of 15.5 µM.

For the molecule `COC(=O)[C@@H](NC(=O)CC(=O)[C@@H](Cc1ccccc1)NC(=O)OC(C)(C)C)c1ccccc1`, the IC50 (in experiment [1]; against Aminopeptidase N) was over 1000 µM throughout.

Regarding `COC(=O)[C@H](Cc1ccccc1)NC(=O)CC(=O)[C@@H](Cc1ccccc1)NC(=O)OC(C)(C)C`, the IC50 (in experiment [1]; against Aminopeptidase N) was over 1000 µM throughout.

Take `COC(=O)CC(=O)[C@@H](Cc1ccccc1)NC(=O)OC(C)(C)C`: the half-maximal inhibitory concentration (IC50) (in experiment [1]; at Aminopeptidase N) was over 1000 µM each time.

For the molecule `N[C@H](Cc1ccccc1)C(=O)CC(=O)N[C@@H](Cc1ccccc1)C(=O)O`, the IC50 in experiment [1] was over 1000 µM; on Aminopeptidase N, 4.73 µM.

Regarding `COC(=O)[C@H](CC(C)C)NC(=O)CC(=O)[C@@H](Cc1ccccc1)NC(=O)OC(C)(C)C`, the IC50 (in experiment [1]; against Aminopeptidase N) was over 1000 µM throughout.

As for `N[C@H](Cc1ccccc1)C(=O)CC(=O)OCc1ccccc1`, the IC50 in experiment [1] is over 1000 µM; at Aminopeptidase N it was 711 µM.

Take `COC(=O)[C@H](Cc1ccccc1)NC(=O)CC(=O)[C@H](N)Cc1ccccc1`: the results for the IC50 (in experiment [1]; against Aminopeptidase N) were over 1000 µM and 7.02 µM, respectively.

Take `CC(C)(C)OC(=O)N[C@H](Cc1ccccc1)C(=O)CC(=O)OCc1ccccc1`: the IC50 (in experiment [1]; on Aminopeptidase N) was over 1000 µM each time.

Take `N[C@H](Cc1ccccc1)C(=O)CC(=O)N[C@H](C(=O)O)c1ccccc1`: the figures for the IC50 (in experiment [1]; against Aminopeptidase N) were over 1000 µM and 3.82 µM, respectively.

Regarding `COC(=O)CC(=O)[C@H](N)Cc1ccccc1`, the IC50 is over 1000 µM in experiment [1] and 984 µM against Aminopeptidase N.

Take `COC(=O)[C@H](CC(C)C)NC(=O)CC(=O)[C@H](N)Cc1ccccc1`: the IC50 in experiment [1] is over 1000 µM; at Aminopeptidase N it was 5.04 µM.

`COC(=O)[C@@H](NC(=O)CC(=O)[C@H](N)Cc1ccccc1)c1ccccc1`: the values for the IC50 (in experiment [1]; on Aminopeptidase N) were over 1000 µM and 6.03 µM, respectively.

Consider `CC(C)C[C@H](NC(=O)CC(=O)[C@H](N)Cc1ccccc1)C(=O)O`, for which, in experiment [2], the result was Active. The IC50 in experiment [1] was over 1000 µM; against Aminopeptidase N, 1.41 µM.

Take `CC(C)C[C@H](NC(=O)[C@@H](O)[C@H](N)Cc1ccccc1)C(=O)O` [UBENIMEX]: in experiment [1], the IC50 was over 1000 µM.
